From patent US4010264A, “7-[3-Substituted isoxazol-5-yl]-acetamido-cephalosporanic acids and their anti-bacterial use” (Koninklijke Nederlandsche Gist-en Spiritusfabriek N.V., priority 1970, dated 1977)
Converted amounts (≈) assume the structure as drawn. Counter-ions that a name gives are not always drawn. Like-named read-outs stand apart in the source and are kept apart here.

How the values were obtained:
[1] = tested on: Staphylococcus aureus L160a (penicillinase-producing); test: MIC, agar serial dilution test; conditions: 24 h
Proteus mirabilis O.T. = test: in vivo infection test in mice; conditions: in Mus musculus
Brucella melitensis A488 = test: microbe, parasite or virus in culture; type: cell-based; conditions: A488, 24 h
[2] = tested on: Staphylococcus aureus A321; test: MIC, agar serial dilution test; type: cell-based
[3] = tested on: Bacillus subtilis ATCC 6633; test: MIC, agar serial dilution test; type: cell-based
[4] = tested on: Klebsiella pneumoniae A809; test: MIC, agar serial dilution test; type: cell-based
[5] = tested on: Streptococcus faecalis L 80; test: MIC, agar serial dilution test; type: cell-based; conditions: Enterococcus faecalis
[6] = tested on: Diplococcus pneumoniae L 54; test: MIC, agar serial dilution test; type: cell-based; conditions: Streptococcus pneumoniae
[7] = tested on: Streptococcus haemolyticus A266; test: MIC, agar serial dilution test; type: cell-based
[8] = tested on: Staphylococcus aureus A355 (penicillinase-producing); test: MIC, agar serial dilution test; conditions: 24 h
[9] = tested on: Staphylococcus aureus A55; test: MIC, agar serial dilution test; type: cell-based
[10] = tested on: Pasteurella multocida A723; test: MIC, agar serial dilution test; type: cell-based
[11] = tested on: Staphylococcus aureus A 321; test: in vivo infection test in mice; conditions: A321, in Mus musculus
[12] = tested on: Pseudomonas aeruginosa A 1058; test: in vivo infection test in mice; conditions: A1058, in Mus musculus
[13] = tested on: Staphylococcus aureus A 2000; test: in vivo infection test in mice; conditions: A2000, in Mus musculus
[14] = tested on: Staphylococcus aureus A 2001; test: in vivo infection test in mice; conditions: A2001, in Mus musculus
[15] = tested on: Salmonella typhi murium R 172; test: in vivo infection test in mice; conditions: Salmonella enterica, in Mus musculus
[16] = Staphylococcus aureus A321, 24 hours at 37° C, read-out: MIC
[17] = ATCC6633, Bacillus subtilis ATCC 6633, 24 hours at 37° C, read-out: MIC
[18] = Klebsiella pneumoniae A809, 24 hours at 37° C, read-out: MIC
[19] = L80, Streptococcus faecalis L 80, 24 hours at 37° C, read-out: MIC
[20] = L54, Diplococcus pneumoniae L 54, 24 hours at 37° C, read-out: MIC
[21] = Streptococcus haemolyticus A266, 24 hours at 37° C, read-out: MIC
[22] = Staphylococcus aureus A55, 24 hours at 37° C, read-out: MIC
[23] = Pasteurella multocida A723, 24 hours at 37° C, read-out: MIC

Compound	MIC [1] [µg/mL]	ED50 (Proteus mirabilis O.T.; ip) [mg/kg]	MIC (Brucella melitensis A488) [µg/mL]	MIC [2, 16] [µg/mL]	MIC [3, 17] [µg/mL]	MIC [4, 18] [µg/mL]	MIC [5, 19] [µg/mL]	MIC [6, 20] [µg/mL]	MIC [7, 21] [µg/mL]	MIC [8] [µg/mL]	MIC [9, 22] [µg/mL]	MIC [10, 23] [µg/mL]	ED50 ([11]; ip) [mg/kg]	ED50 ([11]; po) [mg/kg]	ED50 ([14]; ip) [mg/kg]	ED50 ([14]; po) [mg/kg]	ED50 ([14]; sc) [mg/kg]	ED50 ([11]; sc) [mg/kg]	further results
CC1(C)S[C@@H]2C(NC(=O)Cc3onc(-c4c(Cl)cccc4Cl)c3C(=O)O)C(=O)N2[C@H]1C(=O)O (some centres unmarked) [Example V, 6-{[3-(2,6-dichlorophenyl)-4-carboxyisoxazol-5-yl]acetamido}penicillanic acid]	3 (≈ 5.83 µM)	> 300	25 (≈ 48.6 µM)	1 (≈ 1.94 µM)	0.5 (≈ 0.972 µM)	> 100	25 (≈ 48.6 µM)	6 (≈ 11.7 µM)	0.5 (≈ 0.972 µM)	12.5 (≈ 24.3 µM)	1 (≈ 1.94 µM)	1.5 (≈ 2.92 µM)	< 100	> 215	–	–	–	–	ED50 (Proteus mirabilis O.T.; po): > 300 mg/kg
Cc1cc(C)c(-c2cc(C(C)C(=O)NC3C(=O)N4C3SC(C)(C)C4C(=O)O)on2)c(C)c1 (stereo not drawn) [Example XI, Cyclohexylamine salt of 6{α-methyl-[3-(2,4,6-trimethyl)phenylisoxazol-5-yl]acetamido}penicillanic acid]	12.5	> 300	3	0.06	0.06	100	1.5	0.12	0.007	12.5	0.12	50	> 21.5	> 100	–	–	–	–	ED50 (Proteus mirabilis O.T.; po): > 300 mg/kg; ED50 ([12]; po): > 300 mg/kg
Cc1cc(C)c(-c2cc(C(Cl)C(=O)NC3C(=O)N4C3SC(C)(C)C4C(=O)O)on2)c(C)c1 (stereo not drawn) [Example IX, Cyclohexylamine salt of 6-{α-chloro-[3-(2,4,6-trimethyl)phenyl-isoxazol-5-yl]acetamido}penicillanic acid]	25	–	25	0.25	0.12	> 100	1.5	0.12	0.06	25	0.25	25	> 21.5	> 100	–	–	–	–	–
CC1(C)SC2C(NC(=O)Cc3cc(-c4c(Cl)cccc4Cl)no3)C(=O)N2C1C(=O)O (centres unmarked) [Example I, Sodium salt of 6-{[3-(2,6-dichlorophenyl)isoxazol-5-yl]acetamido}-penicillanic acid]	1	–	0.5	0.015	0.007	100	50	0.25	0.007	3	0.01	2	10.8	126	> 215	> 215	> 215	36.9	ED50 ([13]; ip): 133 mg/kg; ED50 ([13]; po): > 215 mg/kg; ED50 ([13]; sc): > 215 mg/kg; ED50 ([12]; ip): > 215 mg/kg; ED50 ([15]; ip): > 215 mg/kg
CC(=O)OCC1=C(C(=O)[O-])N2C(=O)C(NC(=O)Cc3onc(C)c3Cl)[C@H]2SC1.[Na+] (some centres unmarked) [XXXV, Sodium 7{[3-methyl-4-chloroisoxazole-5 yl]acetamido}-3-acetoxymethyl-3-cephem-4carboxylate]	0.5	–	0.06	–	–	–	–	–	–	0.5	–	–	–	–	–	–	–	–	MIC ([2]; Staphylococcus aureus, A321, 24 h): 0.25 µg/mL; MIC ([3]; Bacillus subtilis, ATCC6633, 24 h): 0.06 µg/mL; MIC ([4]; Klebsiella pneumoniae, A809, 24 h): 1.5 µg/mL; MIC ([5]; L80, 24 h): 25 µg/mL; MIC ([6]; L54, 24 h): 1 µg/mL; MIC ([7]; Streptococcus, A266, 24 h): 0.06 µg/mL; MIC ([9]; Staphylococcus aureus, A55, 24 h): 0.25 µg/mL; MIC ([10]; Pasteurella multocida, A723, 24 h): 0.75 µg/mL
CC(=O)OCC1=C(C(=O)O)N2C(=O)C(NC(=O)Cc3onc(-c4c(C)cc(C)cc4C)c3C)C2SC1 (centres unmarked) [XII, Sodium salt of 7-{[3-(2,4,6-trimethyl)phenyl-4-methyl-isoxazol-5-yl]acetamido}cephalosporanic acid]	0.25	–	50	0.12	0.06	> 100	6	0.06	0.06	0.25	0.25	100	–	–	–	–	–	–	–
CC1=C(C(=O)O)N2C(=O)C(NC(=O)Cc3cc(-c4c(Cl)cccc4Cl)no3)C2SC1 (centres unmarked) [Example IV, Sodium salt of 7{[3-(2,6-dichlorophenyl)isoxazol-5-yl]acetamido}desacetoxycephalosporanicacid]	1.5	> 215	12.5	0.5	1	> 100	–	0.75	0.5	3	0.75	6	23.3	50.1	23.3	~200	> 215	31.6	ED50 ([13]; ip): 19.6 mg/kg; ED50 ([13]; po): > 215 mg/kg; ED50 ([13]; sc): > 215 mg/kg; ED50 ([12]; ip): > 215 mg/kg; MIC ([5]; L80, 24 h): 12.5 µg/mL; ED50 ([15]; ip): > 215 mg/kg
Cc1cc(CC(=O)NC2C(=O)N3[C@@H]2SC(C)(C)[C@@H]3C(=O)O)on1 (some centres unmarked) [Example XXI, 6-{[3-methyl-isoxazol-5-yl]acetamido}penicillanic acid]	3 (≈ 8.84 µM)	–	3 (≈ 8.84 µM)	0.25 (≈ 0.737 µM)	0.06 (≈ 0.177 µM)	> 100	3 (≈ 8.84 µM)	1.5 (≈ 4.42 µM)	0.03 (≈ 0.0884 µM)	6 (≈ 17.7 µM)	0.5 (≈ 1.47 µM)	1.5 (≈ 4.42 µM)	–	–	–	–	–	–	–
CCC(Oc1ccccc1)C(=O)N[C@@H]1C(=O)N2[C@@H]1SC(C)(C)[C@@H]2C(=O)O (some centres unmarked) [Propicillin, reference compound]	–	–	–	–	–	–	–	–	–	–	–	–	–	10.8	133	> 215	> 215	2.33	ED50 ([13]; ip): 88 mg/kg; ED50 ([13]; po): > 215 mg/kg; ED50 ([13]; sc): > 215 mg/kg
CC1=C(C(=O)O)N2C(=O)C(NC(=O)Cc3onc(-c4c(Cl)cccc4Cl)c3C)C2SC1 (centres unmarked) [VIII, 7-{[3-(2,6-dichloro)phenyl-4-methyl-isoxazol-5-yl]acetamidodesacetoxycephalosporanic}acid]	3 (≈ 6.22 µM)	–	12.5 (≈ 25.9 µM)	0.5 (≈ 1.04 µM)	0.25 (≈ 0.518 µM)	> 100	100 (≈ 207 µM)	1 (≈ 2.07 µM)	0.25 (≈ 0.518 µM)	3 (≈ 6.22 µM)	1.5 (≈ 3.11 µM)	100 (≈ 207 µM)	–	–	–	–	–	–	–
CC(=O)OCC1=C(C(=O)O)N2C(=O)C(NC(=O)Cc3cc(-c4c(C)cc(C)cc4C)no3)C2SC1 (centres unmarked) [VII, Sodium salt of 7-{[3-(2,4,6-trimethyl)phenylisoxazol-5-yl]acetamido}cephalosporanic acid]	0.12	> 215	12.5	0.06	0.015	50	1	0.03	0.03	0.25	0.06	50	3.8	70	17.1	> 215	140	18.5	ED50 (Proteus mirabilis O.T.; po): ~215 mg/kg; ED50 ([12]; ip): > 215 mg/kg; ED50 ([12]; po): > 215 mg/kg; ED50 ([15]; ip): > 215 mg/kg; ED50 ([15]; po): > 215 mg/kg
